Activity calls are given as the source filed them.
Key:
Midasin = Midasin (Homo sapiens, UniProt Q9NU22)
Ephrin type-B receptor 6 = target: T1, Ephrin type-B receptor 6 (Homo sapiens, UniProt O15197)
T1 sequence (O15197 whole entry): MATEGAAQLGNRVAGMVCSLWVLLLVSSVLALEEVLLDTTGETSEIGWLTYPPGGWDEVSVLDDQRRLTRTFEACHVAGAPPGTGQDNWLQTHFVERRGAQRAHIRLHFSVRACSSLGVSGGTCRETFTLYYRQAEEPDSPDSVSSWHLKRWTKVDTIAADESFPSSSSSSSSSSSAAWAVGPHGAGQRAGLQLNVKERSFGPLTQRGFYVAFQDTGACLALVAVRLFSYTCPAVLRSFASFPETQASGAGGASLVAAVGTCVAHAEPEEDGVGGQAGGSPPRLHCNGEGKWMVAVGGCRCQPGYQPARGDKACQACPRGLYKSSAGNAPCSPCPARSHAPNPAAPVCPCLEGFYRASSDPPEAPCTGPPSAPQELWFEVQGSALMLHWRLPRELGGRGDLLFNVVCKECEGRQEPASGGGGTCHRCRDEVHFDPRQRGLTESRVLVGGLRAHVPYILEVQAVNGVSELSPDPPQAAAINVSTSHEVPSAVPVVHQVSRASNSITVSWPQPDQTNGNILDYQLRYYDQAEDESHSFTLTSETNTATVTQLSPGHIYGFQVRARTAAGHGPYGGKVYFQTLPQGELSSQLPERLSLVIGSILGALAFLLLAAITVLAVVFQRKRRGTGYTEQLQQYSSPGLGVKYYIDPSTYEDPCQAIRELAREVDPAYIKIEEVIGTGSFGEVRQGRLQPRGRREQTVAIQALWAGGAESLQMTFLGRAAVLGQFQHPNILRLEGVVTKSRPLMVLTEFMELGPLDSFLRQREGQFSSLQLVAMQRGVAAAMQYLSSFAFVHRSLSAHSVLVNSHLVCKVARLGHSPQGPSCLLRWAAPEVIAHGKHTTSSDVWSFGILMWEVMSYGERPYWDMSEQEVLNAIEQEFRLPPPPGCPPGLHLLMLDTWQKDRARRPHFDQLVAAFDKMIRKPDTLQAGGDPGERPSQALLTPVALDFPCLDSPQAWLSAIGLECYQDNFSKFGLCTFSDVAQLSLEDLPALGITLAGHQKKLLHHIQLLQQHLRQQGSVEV

[1] = target: T2, Interleukin-1 receptor-associated kinase 4 (Homo sapiens, UniProt Q9NWZ3)
T2 sequence (Q9NWZ3 whole entry): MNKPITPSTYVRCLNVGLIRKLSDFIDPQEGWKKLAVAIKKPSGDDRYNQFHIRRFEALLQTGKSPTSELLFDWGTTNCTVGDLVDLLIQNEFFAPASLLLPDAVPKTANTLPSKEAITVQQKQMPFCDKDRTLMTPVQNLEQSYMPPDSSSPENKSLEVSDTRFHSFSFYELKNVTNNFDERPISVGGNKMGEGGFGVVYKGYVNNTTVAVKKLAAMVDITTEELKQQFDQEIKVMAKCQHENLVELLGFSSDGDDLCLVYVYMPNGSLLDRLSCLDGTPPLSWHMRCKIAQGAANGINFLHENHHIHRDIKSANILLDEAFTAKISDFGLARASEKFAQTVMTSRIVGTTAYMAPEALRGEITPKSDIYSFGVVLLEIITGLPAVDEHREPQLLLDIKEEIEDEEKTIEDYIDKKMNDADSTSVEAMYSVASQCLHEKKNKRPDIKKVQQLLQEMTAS

[2] = target: T3, STE20-related kinase adapter protein alpha (Homo sapiens, UniProt Q7RTN6)
T3 sequence (Q7RTN6 whole entry): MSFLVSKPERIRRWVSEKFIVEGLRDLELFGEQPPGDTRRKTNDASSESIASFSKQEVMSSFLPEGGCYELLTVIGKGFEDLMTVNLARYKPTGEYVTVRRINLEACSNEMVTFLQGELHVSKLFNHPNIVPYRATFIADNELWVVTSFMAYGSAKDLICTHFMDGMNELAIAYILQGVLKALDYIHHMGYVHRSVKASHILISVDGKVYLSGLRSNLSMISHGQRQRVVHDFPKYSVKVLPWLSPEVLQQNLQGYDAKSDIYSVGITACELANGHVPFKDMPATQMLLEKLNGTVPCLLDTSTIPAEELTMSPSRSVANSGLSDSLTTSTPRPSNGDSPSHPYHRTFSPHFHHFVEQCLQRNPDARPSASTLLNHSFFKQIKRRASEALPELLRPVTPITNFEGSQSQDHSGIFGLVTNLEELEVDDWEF

[3] = target: DnaJ homolog subfamily A member 1 (Homo sapiens, UniProt P31689)
Chain of DnaJ homolog subfamily A member 1 (P31689 whole entry): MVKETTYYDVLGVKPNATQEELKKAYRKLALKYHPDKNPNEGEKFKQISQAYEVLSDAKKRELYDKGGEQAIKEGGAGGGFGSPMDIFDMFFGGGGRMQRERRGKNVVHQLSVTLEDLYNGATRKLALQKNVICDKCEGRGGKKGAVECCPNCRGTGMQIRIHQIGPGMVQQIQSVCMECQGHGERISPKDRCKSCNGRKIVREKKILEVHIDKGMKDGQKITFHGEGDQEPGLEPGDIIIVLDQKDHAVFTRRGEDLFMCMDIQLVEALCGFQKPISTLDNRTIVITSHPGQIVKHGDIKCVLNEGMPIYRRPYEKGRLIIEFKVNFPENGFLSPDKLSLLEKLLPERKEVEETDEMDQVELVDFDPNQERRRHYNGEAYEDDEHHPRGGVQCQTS

[4] = target: cAMP-dependent protein kinase catalytic subunit alpha (Homo sapiens, UniProt P17612)
[5] = target: T4, Dynamin-like GTPase OPA1, mitochondrial (Homo sapiens, UniProt O60313)
T4 sequence (O60313 whole entry): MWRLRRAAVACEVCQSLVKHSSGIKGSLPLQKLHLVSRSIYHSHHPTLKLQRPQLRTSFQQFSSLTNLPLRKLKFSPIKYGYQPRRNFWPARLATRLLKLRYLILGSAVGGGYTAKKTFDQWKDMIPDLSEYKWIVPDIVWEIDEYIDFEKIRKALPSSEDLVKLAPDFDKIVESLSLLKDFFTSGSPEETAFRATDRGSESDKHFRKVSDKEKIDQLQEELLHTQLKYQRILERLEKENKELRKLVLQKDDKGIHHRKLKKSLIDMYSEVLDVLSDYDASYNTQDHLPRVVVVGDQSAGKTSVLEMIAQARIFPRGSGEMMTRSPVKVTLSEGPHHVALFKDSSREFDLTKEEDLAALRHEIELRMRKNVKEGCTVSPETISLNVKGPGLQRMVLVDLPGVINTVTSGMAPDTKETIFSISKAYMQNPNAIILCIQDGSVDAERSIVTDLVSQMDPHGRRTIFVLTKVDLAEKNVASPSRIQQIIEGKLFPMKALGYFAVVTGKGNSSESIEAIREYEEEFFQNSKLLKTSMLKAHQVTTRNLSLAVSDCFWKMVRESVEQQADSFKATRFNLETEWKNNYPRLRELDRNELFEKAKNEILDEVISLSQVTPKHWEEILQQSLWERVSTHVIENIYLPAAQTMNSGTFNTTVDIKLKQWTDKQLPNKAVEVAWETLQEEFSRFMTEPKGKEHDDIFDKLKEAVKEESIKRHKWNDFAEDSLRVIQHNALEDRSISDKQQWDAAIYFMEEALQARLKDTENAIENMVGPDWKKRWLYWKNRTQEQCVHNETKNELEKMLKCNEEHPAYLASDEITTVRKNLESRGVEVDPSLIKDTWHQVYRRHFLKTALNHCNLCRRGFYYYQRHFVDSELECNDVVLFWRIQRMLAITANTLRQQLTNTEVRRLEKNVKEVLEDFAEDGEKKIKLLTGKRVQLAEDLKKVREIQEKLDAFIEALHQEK
Note: in the data inactive means no Kd found up to 30 µM.

Row | Compound | Kd (Midasin) | Kd (Ephrin type-B receptor 6) | Kd [1] | Kd [2] | Kd [3] | Kd [4] | Kd [5]
1 | C#Cc1cccc(Nc2ncnc3cc4c(cc23)OCCOCCOCCO4)c1 [ICOTINIB] | > 30 µM (inactive) | > 30 µM (inactive) | > 30 µM (inactive) | > 30 µM (inactive) | > 30 µM (inactive) | > 30 µM (inactive) | > 30 µM (inactive)
2 | COc1cc2ncnc3c2cc1OCCCCCN(C)Cc1ccc(Br)cc1N3 [JNJ-26483327] | > 30 µM (inactive) | > 30 µM (inactive) | > 30 µM (inactive) | > 30 µM (inactive) | > 30 µM (inactive) | > 30 µM (inactive) | > 30 µM (inactive)
3 | Cc1ccc(C(=O)Nc2ccc(Oc3cc4cnn(C)c4cc3-c3cn[nH]c3)c(F)c2)c(=O)n1-c1ccc(F)cc1 [MERESTINIB] | > 30 µM (inactive) | > 30 µM (inactive) | > 30 µM (inactive) | > 30 µM (inactive) | > 30 µM (inactive) | > 30 µM (inactive) | > 30 µM (inactive)
4 | COc1cccc2cc(-c3nc([C@H]4CC[C@H](C(=O)O)CC4)n4ncnc(N)c34)[nH]c12 [OSI-027] | > 30 µM (inactive) | > 30 µM (inactive) | > 30 µM (inactive) | > 30 µM (inactive) | > 30 µM (inactive) | > 30 µM (inactive) | > 30 µM (inactive)
5 | O=C(Nc1ccc(OC(F)(F)F)cc1)c1sccc1NCc1ccnc2ccccc12 [OSI-930] | > 30 µM (inactive) | > 30 µM (inactive) | > 30 µM (inactive) | > 30 µM (inactive) | > 30 µM (inactive) | > 30 µM (inactive) | > 30 µM (inactive)
6 | C=CC(=O)Nc1cc(Nc2nccc(-c3cn(C)c4ccccc34)n2)c(OC)cc1N(C)CCN(C)C [OSIMERTINIB] | > 30 µM (inactive) | > 30 µM (inactive) | > 30 µM (inactive) | > 30 µM (inactive) | > 30 µM (inactive) | > 30 µM (inactive) | > 30 µM (inactive)
7 | FC(F)(F)c1ccc(CNc2ccc(Cc3c[nH]c4ncc(Cl)cc34)cn2)cn1 [PEXIDARTINIB] | > 30 µM (inactive) | > 30 µM (inactive) | > 30 µM (inactive) | > 30 µM (inactive) | > 30 µM (inactive) | > 30 µM (inactive) | > 30 µM (inactive)
8 | CC(C)CC(=O)Nc1[nH]nc2c1CN(C(=O)C1CCN(C)CC1)C2(C)C [PHA-793887] | > 30 µM (inactive) | > 30 µM (inactive) | > 30 µM (inactive) | > 30 µM (inactive) | > 30 µM (inactive) | > 30 µM (inactive) | > 30 µM (inactive)
9 | O=C(NC[C@H](O)CO)c1ccncc1Nc1ccc(I)cc1F [PIMASERTIB] | > 30 µM (inactive) | > 30 µM (inactive) | > 30 µM (inactive) | > 30 µM (inactive) | > 30 µM (inactive) | > 30 µM (inactive) | > 30 µM (inactive)
10 | COc1cc(F)c(F)c(Nc2ccc(I)cc2F)c1NS(=O)(=O)C1(C[C@H](O)CO)CC1 [REFAMETINIB] | > 30 µM (inactive) | > 30 µM (inactive) | > 30 µM (inactive) | > 30 µM (inactive) | > 30 µM (inactive) | > 30 µM (inactive) | > 30 µM (inactive)
11 | COCCN1CCN(Cc2ccc(-c3n[nH]c4c3C(=O)c3c(NC(=O)NN5CCOCC5)cccc3-4)cc2)CC1 [RGB-286638] | > 30 µM (inactive) | > 30 µM (inactive) | > 30 µM (inactive) | > 30 µM (inactive) | > 30 µM (inactive) | > 30 µM (inactive) | > 30 µM (inactive)
12 | C=CC(=O)Nc1cccc(Nc2nc(Nc3ccc(N4CCN(C(C)=O)CC4)cc3OC)ncc2C(F)(F)F)c1 [ROCILETINIB] | > 30 µM (inactive) | > 30 µM (inactive) | > 30 µM (inactive) | > 30 µM (inactive) | > 30 µM (inactive) | > 30 µM (inactive) | > 30 µM (inactive)
13 | O=C(O)c1ccc2c(c1)nc(Nc1cccc(Cl)c1)c1ccncc12 [SILMITASERTIB] | > 30 µM (inactive) | > 30 µM (inactive) | > 30 µM (inactive) | > 30 µM (inactive) | > 30 µM (inactive) | > 30 µM (inactive) | > 30 µM (inactive)
14 | C=CCN(/C=C1/C(=O)O[C@H](COC)[C@@]2(C)C1=C(O)C(=O)C1=C2[C@H](OC(C)=O)C[C@]2(C)C(=O)CC[C@@H]12)CC=C [SONOLISIB] | > 30 µM (inactive) | > 30 µM (inactive) | > 30 µM (inactive) | > 30 µM (inactive) | > 30 µM (inactive) | > 30 µM (inactive) | > 30 µM (inactive)
15 | CN1CCN(c2nc(C3=C(c4c[nH]c5ccccc45)C(=O)NC3=O)c3ccccc3n2)CC1 [SOTRASTAURIN] | > 30 µM (inactive) | > 30 µM (inactive) | > 30 µM (inactive) | > 30 µM (inactive) | > 30 µM (inactive) | > 30 µM (inactive) | > 30 µM (inactive)
16 | CC(C)(O)CC(=O)NCCn1ccc2ncnc(Nc3ccc(Oc4cccc(C(F)(F)F)c4)c(Cl)c3)c21 [TAK-285] | > 30 µM (inactive) | 1.85 µM | > 30 µM (inactive) | > 30 µM (inactive) | > 30 µM (inactive) | > 30 µM (inactive) | > 30 µM (inactive)
17 | Cc1cc(C(=O)Nc2cc(Oc3ccc4nc(NC(=O)C5CC5)cn4n3)ccc2C)n(C)n1 [TAK-593] | > 30 µM (inactive) | > 30 µM (inactive) | > 30 µM (inactive) | > 30 µM (inactive) | > 30 µM (inactive) | > 30 µM (inactive) | > 30 µM (inactive)
